Tests used:
Format in all cases: in vivo
[1] = tested on: pigweed (Amaranthus retroflexus); assay: Test B pre-/postemergence plant response
Procedure, shortened: (§1)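 Seeds sown in loam–sand blend were treated preemergence, and plants at 2–18 cm (1- to 4-leaf stage) in peat-based medium were treated postemergence; compounds were formulated in non-phytotoxic solvent with surfactant. After 13–15 days in greenhouse, response was visually rated against controls, 0 (no effect) to 100 (complete control).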

[2] = tested on: giant foxtail (Setaria faberii); assay: Test B pre-/postemergence plant response
Procedure, shortened: as §1

corn (Zea mays) = assay: Test B pre-/postemergence plant response
Procedure, shortened: as §1

[3] = tested on: downy bromegrass (Bromus tectorum); assay: Test B pre-/postemergence plant response; conditions: for Bromegrass, Downy plant response rating (0 to 100 scale): 0 is no effect
Procedure, shortened: as §1

wild oat (Avena fatua) = assay: Test B pre-/postemergence plant response
Procedure, shortened: as §1

[4] = tested on: blackgrass (Alopecurus myosuroides); assay: Test B pre-/postemergence plant response; conditions: for Blackgrass plant response rating (0 to 100 scale): 0 is no effect
Procedure, shortened: as §1

[5] = tested on: Surinam grass (Brachiaria decumbens); assay: Test B pre-/postemergence plant response
Procedure, shortened: as §1

[6] = tested on: morningglory (Ipomoea coccinea); assay: Test B pre-/postemergence plant response
Procedure, shortened: as §1

[7] = tested on: cocklebur (Xanthium strumarium); assay: Test B pre-/postemergence plant response
Procedure, shortened: as §1

[8] = tested on: Italian ryegrass (Lolium multiflorum); assay: Test B pre-/postemergence plant response
Procedure, shortened: as §1

[9] = tested on: canarygrass (Phalaris minor); assay: Test B postemergence plant response
Procedure, shortened: (§2)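 Plants at the 1- to 4-leaf stage (2 to 18 cm tall), grown in pots of peat moss/vermiculite medium with wetting agent and starter nutrients, received postemergence applications of test chemicals. After 13 to 15 days in a greenhouse, injury was rated visually against untreated controls on a 0 (no effect) to 100 (complete control) scale.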

[10] = tested on: chickweed (Stellaria media); assay: Test B postemergence plant response
Procedure, shortened: as §2

[11] = tested on: windgrass (Apera spica-venti); assay: Test B postemergence plant response
Procedure, shortened: as §2

[12] = 31 g ai/ha, postemergence, scale 0 to 100, 0 is no effect, 100 is complete control
[13] = 62 g ai/ha, postemergence, 0 is no effect, 100 is complete control, 13 to 15 days
[14] = Postemergence, 125 g ai/ha, visual rating after 13 to 15 days, scale 0 (no effect) to 100 (complete control)
[15] = Postemergence, 250 g ai/ha, scale 0 to 100 (0 no effect, 100 complete control)
[16] = Preemergence, 31 g ai/ha, scale 0 to 100 (0 no effect, 100 complete control)
[17] = Preemergence, 62 g ai/ha, scale 0 to 100 (0 no effect, 100 complete control)
[18] = Preemergence, 125 g ai/ha, scale 0 to 100, 0 no effect, 100 complete control
[19] = 250 g ai/ha, Preemergence, 0 to 100 scale
[20] = 62 g ai/ha, postemergence, 100 is complete control, 13 to 15 days
[21] = Postemergence, 31 g ai/ha, 0 to 100 scale (0 no effect, 100 complete control)
[22] = Postemergence, 125 g ai/ha, scale 0 to 100 (0 no effect, 100 complete control)
[23] = Postemergence, 250 g ai/ha, scale 0 to 100 (0 no effect, 100 complete control), 13 to 15 days

## CCCCc1ncc(C(=O)C2=C(O)CCCC2=O)c(=O)n1-c1ccc(C)cc1 [Compound 67]
[1]; [12]
  Plant response rating, Pigweed: 98
[1]; [13]
  Pigweed plant response rating (0 to 100 scale): 98
[1]; [14]
  Plant response rating, Pigweed: 98
[1]; [15]
  Plant response rating, Pigweed: 100
[1]; [16]
  Plant response rating, Pigweed: 98
[1]; [17]
  Plant response rating, Pigweed: 98
[1]; [18]
  Plant response rating, Pigweed: 98
[2]; [12]
  Plant response rating, Foxtail, Giant: 75
[2]; [13]
  Foxtail, Giant plant response rating (0 to 100 scale): 80
[2]; [19]
  Plant response rating, Foxtail, Giant: 65
[2]; [14]
  Plant response rating, Foxtail, Giant: 85
[2]; [15]
  Plant response rating, Foxtail, Giant: 90
[2]; [16]
  Plant response rating, Foxtail, Giant: 0
[2]; [17]
  Plant response rating, Foxtail, Giant: 0
[2]; [18]
  Plant response rating, Foxtail, Giant: 45
Corn (Zea mays); [12]
  Plant response rating, Corn: 5
Corn (Zea mays); [13]
  Corn plant response rating (0 to 100 scale): 10
Corn (Zea mays); [19]
  Plant response rating, Corn: 0
Corn (Zea mays); [14]
  Plant response rating, Corn: 65
Corn (Zea mays); [15]
  Plant response rating, Corn: 75
Corn (Zea mays); [16]
  Plant response rating, Corn: 0
Corn (Zea mays); [17]
  Plant response rating, Corn: 0
Corn (Zea mays); [18]
  Plant response rating, Corn: 0
[3]; [12]
  Plant response rating, Bromegrass, Downy: 0
[3]; [20]
  Bromegrass, Downy plant response rating (0 to 100 scale): 0
[3]; [19]
  Plant response rating, Bromegrass, Downy: 0
[3]; [14]
  Plant response rating, Bromegrass, Downy: 0
[3]; [15]
  Plant response rating, Bromegrass, Downy: 5
[3]; [16]
  Plant response rating, Bromegrass, Downy: 0
[3]; [17]
  Plant response rating, Bromegrass, Downy: 0
[3]; [18]
  Plant response rating, Bromegrass, Downy: 0
Wild oat (Avena fatua); [12]
  Plant response rating, Oat, Wild: 0
Wild oat (Avena fatua); [13]
  Oat, Wild plant response rating (0 to 100 scale): 5
Wild oat (Avena fatua); [14]
  Plant response rating, Oat, Wild: 10
Wild oat (Avena fatua); [15]
  Plant response rating, Oat, Wild: 10
Wild oat (Avena fatua); [16]
  Plant response rating, Oat, Wild: 0
Wild oat (Avena fatua); [17]
  Plant response rating, Oat, Wild: 0
Wild oat (Avena fatua); [18]
  Plant response rating, Oat, Wild: 0
[4]; [12]
  Plant response rating, Blackgrass: 0
[4]; [20]
  Blackgrass plant response rating (0 to 100 scale): 0
[4]; [19]
  Plant response rating, Blackgrass: 5
[4]; [14]
  Plant response rating, Blackgrass: 5
[4]; [15]
  Plant response rating, Blackgrass: 10
[4]; [16]
  Plant response rating, Blackgrass: 0
[4]; [17]
  Plant response rating, Blackgrass: 0
[4]; [18]
  Plant response rating, Blackgrass: 0
[5]; [12]
  Plant response rating, Surinam Grass: 10
[5]; [13]
  Surinam Grass plant response rating (0 to 100 scale): 20
[5]; [14]
  Plant response rating, Surinam Grass: 20
[5]; [15]
  Plant response rating, Surinam Grass: 25
[5]; [16]
  Plant response rating, Surinam Grass: 0
[5]; [17]
  Plant response rating, Surinam Grass: 10
[5]; [18]
  Plant response rating, Surinam Grass: 15
[6]; [12]
  Plant response rating, Morningglory: 80
[6]; [13]
  Morningglory plant response rating (0 to 100 scale): 90
[6]; [14]
  Plant response rating, Morningglory: 95
[6]; [15]
  Plant response rating, Morningglory: 100
[6]; [16]
  Plant response rating, Morningglory: 0
[6]; [17]
  Plant response rating, Morningglory: 15
[6]; [18]
  Plant response rating, Morningglory: 15
[7]; [12]
  Plant response rating, Cocklebur: 75
[7]; [13]
  Cocklebur plant response rating (0 to 100 scale): 75
[7]; [19]
  Plant response rating, Cocklebur: 20
[7]; [14]
  Plant response rating, Cocklebur: 90
[7]; [15]
  Plant response rating, Cocklebur: 90
[7]; [16]
  Plant response rating, Cocklebur: 0
[7]; [17]
  Plant response rating, Cocklebur: 0
[7]; [18]
  Plant response rating, Cocklebur: 15
[8]; [12]
  Plant response rating, Ryegrass, Italian: 0
[8]; [13]
  Ryegrass, Italian plant response rating (0 to 100 scale): 5
[8]; [14]
  Plant response rating, Ryegrass, Italian: 5
[8]; [15]
  Plant response rating, Ryegrass, Italian: 5
[8]; [16]
  Plant response rating, Ryegrass, Italian: 0
[8]; [17]
  Plant response rating, Ryegrass, Italian: 0
[8]; [18]
  Plant response rating, Ryegrass, Italian: 0
[9]; [12]
  Plant response rating, Canarygrass: 0
[9]; [13]
  Canarygrass plant response rating (0 to 100 scale): 0
[9]; [14]
  Plant response rating, Canarygrass: 0
[9]; [15]
  Plant response rating, Canarygrass: 5
[10]; [12]
  Plant response rating, Chickweed: 90
[10]; [13]
  Chickweed plant response rating (0 to 100 scale): 95
[10]; [14]
  Plant response rating, Chickweed: 95
[10]; [15]
  Plant response rating, Chickweed: 100
[11]; [12]
  Plant response rating, Windgrass: 0
[11]; [13]
  Windgrass plant response rating (0 to 100 scale): 0
[11]; [14]
  Plant response rating, Windgrass: 5
[11]; [15]
  Plant response rating, Windgrass: 5

## O=C1CCCC(O)=C1C(=O)c1cnc(-c2cccs2)n(C2CCCCC2)c1=O [Compound 189]
[1]; [21]
  Plant response rating, Pigweed: 80
[1]; [22]
  Plant response rating, Pigweed: 100
[1]; [23]
  Plant response rating, Pigweed: 100
[2]; [21]
  Plant response rating, Foxtail, Giant: 75
[2]; [22]
  Plant response rating, Foxtail, Giant: 90
[2]; [23]
  Plant response rating, Foxtail, Giant: 98
Corn (Zea mays); [21]
  Plant response rating, Corn: 20
Corn (Zea mays); [22]
  Plant response rating, Corn: 35
Corn (Zea mays); [23]
  Plant response rating, Corn: 45
[3]; [20]
  Bromegrass, Downy plant response rating (0 to 100 scale): 5
[3]; [21]
  Plant response rating, Bromegrass, Downy: 0
[3]; [22]
  Plant response rating, Bromegrass, Downy: 5
[3]; [23]
  Plant response rating, Bromegrass, Downy: 10
Wild oat (Avena fatua); [21]
  Plant response rating, Oat, Wild: 5
Wild oat (Avena fatua); [22]
  Plant response rating, Oat, Wild: 10
Wild oat (Avena fatua); [23]
  Plant response rating, Oat, Wild: 25
[4]; [20]
  Blackgrass plant response rating (0 to 100 scale): 0
[4]; [21]
  Plant response rating, Blackgrass: 0
[4]; [22]
  Plant response rating, Blackgrass: 5
[4]; [23]
  Plant response rating, Blackgrass: 5
[5]; [21]
  Plant response rating, Surinam Grass: 65
[5]; [22]
  Plant response rating, Surinam Grass: 80
[5]; [23]
  Plant response rating, Surinam Grass: 85
[6]; [21]
  Plant response rating, Morningglory: 100
[6]; [22]
  Plant response rating, Morningglory: 100
[6]; [23]
  Plant response rating, Morningglory: 100
[7]; [21]
  Plant response rating, Cocklebur: 60
[7]; [22]
  Plant response rating, Cocklebur: 100
[7]; [23]
  Plant response rating, Cocklebur: 100
[8]; [21]
  Plant response rating, Ryegrass, Italian: 0
[8]; [22]
  Plant response rating, Ryegrass, Italian: 5
[8]; [23]
  Plant response rating, Ryegrass, Italian: 5
[9]; [21]
  Plant response rating, Canarygrass: 0
[9]; [22]
  Plant response rating, Canarygrass: 5
[9]; [23]
  Plant response rating, Canarygrass: 10
[10]; [21]
  Plant response rating, Chickweed: 98
[10]; [22]
  Plant response rating, Chickweed: 100
[10]; [23]
  Plant response rating, Chickweed: 100
[11]; [21]
  Plant response rating, Windgrass: 25
[11]; [22]
  Plant response rating, Windgrass: 60
[11]; [23]
  Plant response rating, Windgrass: 80
